According to patent publication US8664269B2, “Nitroglycerin therapy for those unable to metabolize nitroglycerin” (Duke University, priority 2005, dated 2014):

Experiments:
[1] = tested on: alcoholic with restenosis and chest pain; experiment: Example VI: restenosis and chest pain in an alcoholic; format: in vivo, human
Description: A alcoholic has restenosis and chest pain.

[2] = tested on: person with high blood pressure; experiment: Example VII: high blood pressure; format: in vivo, human; conditions: 50 mg/min IV GTN alone; 200 mmHg systolic
Protocol: A person has high blood pressure (200 mmHg systolic). […] Administration of Composition V (50 mg/ml and NAC 75 mg/ml) at 1 ml/min causes blood pressure to fall to 160 mmHg.

[3] = tested on: patient with congestive heart failure; experiment: Example II: GTN therapy of congestive heart failure, patient; format: in vivo, human
Protocol: A patient has congestive heart failure manifested by pulmonary congestion and low ventricular function. Treatment by infusion with GTN (100 mcg/min) has no effect. Infusion of GTN (100 mcg/min) is continued along with infusion of N-acetylcysteine at 50 mg/kg every 6 hours. After 10 minutes time, pulmonary congestion attenuates and ventricular function improves.

[4] = tested on: patient with heart attack (myocardial infarction); experiment: Example V: myocardial infarction, patient; format: in vivo, human; conditions: IV GTN alone
Description: A patient has a heart attack (myocardial infarction).

[5] = tested on: patient with persistent angina; experiment: Example I: GTN therapy of persistent angina, patient; format: in vivo, human
Protocol: A patient has persistent angina. Treatment by infusion with GTN 100 mcg/min has no effect. Infusion of nitroglycerin 100 mcg/min is continued along with infusion of N-acetylcysteine at 50 mg/kg every six hours.

[6] = tested on: alcoholic with chronic obstructive pulmonary disease; experiment: Example VIII: obstructive lung disease in an alcoholic, shortness of breath; format: in vivo, human
Description: A alcoholic with obstructive lung disease (chronic obstructive pulmonary disease) has shortness of breath.

[7] = tested on: alcoholic patient who develops angina; experiment: Example IV: GTN therapy of angina in an alcoholic; format: in vivo, human; conditions: for resolution of angina: 600 mg P.O. (TID) with sublingual GTN (0.4 mg)
Description: A alcoholic needs to imbibe alcohol to avoid withdrawal symptoms. The patient develops angina. Sublingual GTN ([…]) has no effect.

[8] = tested on: patient with Type 1 diabetes on insulin regimen who develops angina; experiment: Example III: GTN therapy of angina, Type 1 diabetes patient on insulin regimen; format: in vivo, human
[9] = tested on: Patient with interstitial lung disease (pulmonary fibrosis); experiment: Example X: interstitial lung disease (pulmonary fibrosis), patient; format: in vivo, human; conditions: nebulized GTN (10 micromolar) together with nebulized NAC (1 millimolar); patient on prednisone therapy
Description: A patient with interstitial lung disease (pulmonary fibrosis) experiences shortness of breath despite being on prednisone therapy.

[10] = tested on: patients receiving continuous GTN; conditions: intravenous NAC, short term studies; cited from earlier work
Patient with asthma = experiment: Example IX: asthma, patient, shortness of breath; format: in vivo, human; conditions: nebulized combination of GTN (100 micromolar) and NAC (dose of I millimolar)
Description: A patient with asthma experiences shortness of breath.

[11] = infusion of GTN 100 mcg/min alone
[12] = infusion of N-acetylcysteine 50 mg/kg every 6 hours along with infusion of GTN 100 mcg/min
[13] = infusion of N-acetylcysteine 50 mg/kg every six hours along with infusion of nitroglycerin 100 mcg/min

O=[N+]([O-])OCC(CO[N+](=O)[O-])O[N+](=O)[O-] [GTN, nitroglycerin]
chest pain ([1]; sublingual GTN 0.5 mg alone): does not relieve chest pain | response of high blood pressure [2]: does not respond | effect on congestive heart failure (pulmonary congestion, low ventricular function) [3, 11]: no effect | response of myocardial infarction patient [4]: does not respond | effect on persistent angina [5, 11]: no effect | shortness of breath ([6]; nebulized GTN at a dose of 100 micromolar alone): does not cause improvement | effect on angina ([7]; sublingual GTN (0.4 mcg) alone): no effect | effect on angina ([8]; sublingual GTN (0.4 mcg) alone): no effect

N[C@@H](CCC(=O)N[C@@H](CS)C(=O)NCC(=O)O)C(=O)O [glutathione]
chest pain ([1]; glutathione 60 mg P.O. (T.I.D.) supplementing sublingual GTN 0.5 mg): chest pain is relieved | resolution of angina [7]: resolution of the angina

O=C1O[C@H]([C@@H](O)CO)C(O)=C1O [Vitamin C, ascorbic acid]
chest pain ([1]; oral vitamin C (10,000 mg/day P.O.) supplementing sublingual GTN 0.5 mg): chest pain is relieved | resolution of angina ([8]; Vitamin C 10,000 mg/day P.O. along with sublingual GTN (0.4 mg)): causes the angina to resolve

CC(=O)N[C@@H](CS)C(=O)O [N-acetylcysteine]
chest pain ([1]; oral NAC (300 mg) supplementing sublingual GTN 0.5 mg): chest pain is relieved | shortness of breath [9]: causes improvement | pulmonary congestion [3, 12]: attenuates | time until pulmonary congestion attenuates and ventricular function improves [3, 12]: 10 min | ventricular function [3, 12]: improves | resolution of angina [5, 13]: the angina is resolved | time until angina is resolved [5, 13]: 3 min | GTN tolerance [10]: reverse GTN tolerance | shortness of breath (Patient with asthma): causes improvement | shortness of breath ([6]; nebulized combination of GTN (100 micromolar) and NAC (1 millimolar)): causes improvement | resolution of angina [7]: resolution of the angina | resolution of angina ([8]; N-acetylcysteine 600 mg P.O. TID along with sublingual GTN (0.4 mg)): causes the angina to resolve
